Data on 40 molecules can be found in PMC13261364 (International journal of biological macromolecules, 2025).

One data set deals with Neisseria gonorrhoeae. Also noted: method as in PMID 33765392, PMID 34894972. The note with it: treatment with CA inhibitor; no apparent development of resistance; ref [35],[36]; cited from earlier work.
The target of a further data set is psCA1. As to conditions: read-out: KI psCA1; 20 °C, 10 mM Tris buffer, 20 mM NaClO4 pH 8.3; ref [52]; cited from earlier work.
Data set [1] concerns the target PaCAγ1 (Pseudomonas aeruginosa, UniProt Q9HT34). Nature of the data set: biochemical. The note with it: Stopped-Flow assay, mean from 3 different assays.
For another data set, the target named is hCA I (Homo sapiens, UniProt P00915). The data set can be described thus: Stopped-flow CO2 hydration inhibition assay, hCA I. The class given is biochemical.
hCA I, sequence (P00915 whole entry): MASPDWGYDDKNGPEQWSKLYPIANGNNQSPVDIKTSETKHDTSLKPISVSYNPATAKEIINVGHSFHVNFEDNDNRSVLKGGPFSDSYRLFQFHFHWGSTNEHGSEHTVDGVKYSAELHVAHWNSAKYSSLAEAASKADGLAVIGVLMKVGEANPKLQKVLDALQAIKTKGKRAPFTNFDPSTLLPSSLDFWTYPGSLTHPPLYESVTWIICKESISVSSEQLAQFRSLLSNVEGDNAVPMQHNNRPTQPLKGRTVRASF
For data set [2], the system named is PaCAγ1. Nature of the data set: biochemical. The note with it: Selectivity Index, ratio of KI.
The next data set has as its target hCA II (Homo sapiens, UniProt P00918). The data set can be described thus: Stopped-flow CO2 hydration inhibition assay, hCA II. The format is biochemical. As to conditions: mean from 3 different assays, errors ±5–10 %.
For a further data set, the system named is Helicobacter pylori. The note with it: without triggering resistance; ref [37]; cited from earlier work.
Data set [3] deals with the molecule itself. Nature of the data set: SEC-MALS; SEC-MALS-QELS; 700 μg of purified protein loaded on the SEC s75 column, 20 mM TRIS, 150 mM NaCl, pH 8.5, flow rate 0.5 mL/min. For orientation: SEC sorts molecules by how far they enter the pores of the column.
The mark [4] stands for this setting: Stopped-Flow assay, mean from 3 different assays, errors ±5–10 %, read-out: KI hCA I.

Like-named read-outs stand apart in the source and are kept apart here. Bounds are passed on as bounds.

In the case of `CC(=O)Nc1nnc(S(N)(=O)=O)s1` [AAZ, acetazolamide], the “effect on N. gonorrhoeae” value with Neisseria gonorrhoeae is “long-lasting bacteriostatic effects”.
For the molecule `Nc1cccc(S(N)(=O)=O)c1` [ABS, 3-amino-benzene suldonamide], on psCA1, the Ki (commonly the dissociation constant of the complex between target and ligand, obtained from inhibition or displacement) was 19 nM.
`CCN[C@H]1CN(CCCOC)S(=O)(=O)c2sc(S(N)(=O)=O)cc21` [BRZ] displayed a Ki at PaCAγ1 [1] of 307 ± 13.1 nM.
Turning to `NS(=O)(=O)c1nnc(NS(=O)(=O)c2ccccc2)s1` [BZA], at PaCAγ1 [1], the Ki came out at 290 ± 14.4 nM.
On the same count and under the same terms, with `Nc1cccc(S(N)(=O)=O)c1` [Compound 1] the figure was 189 ± 7.11 nM; with `Nc1ccc(S(N)(=O)=O)cc1` [Compound 2], 155 ± 5.23 nM.
Still for that read-out and setting: with `NCc1ccc(S(N)(=O)=O)cc1` [Compound 3] the figure was 132 ± 8.86 nM.
Turning to `NS(=O)(=O)c1cccc(S(N)(=O)=O)c1` [Compound 5], the Ki amounted to 561 ± 32.4 nM at PaCAγ1 [1] and 25 µM at hCA I (setting [4]).
For `Cc1ccc(S(N)(=O)=O)cc1` [Compound 6], the Ki at PaCAγ1 [1] came out at 266 ± 14.2 nM; at hCA I it was 21 µM.
Molecule `Nc1ccc(S(N)(=O)=O)cc1F` [Compound 7] gave a Ki at PaCAγ1 [1] of 325 ± 13.8 nM.
The same measure, in the same setting: with `Nc1ccc(S(N)(=O)=O)cc1Cl` [Compound 8] the figure was 697 ± 44.7 nM; with `Nc1ccc(S(N)(=O)=O)cc1Br` [Compound 9], 3490 nM; with `NS(=O)(=O)c1cc(Cl)cc(Cl)c1O` [Compound 10], 9670 nM.
The same measure, in the same setting: with `Nc1cc(C(F)(F)F)c(S(N)(=O)=O)cc1S(N)(=O)=O` [Compound 11] the figure was 3670 nM; with `Nc1cc(Cl)c(S(N)(=O)=O)cc1S(N)(=O)=O` [Compound 12], 6090 nM.
On PaCAγ1 [1], `Nc1nnc(S(N)(=O)=O)s1` [Compound 13] registered a Ki of 72.6 ± 3.43 nM.
Still for that read-out and setting: with `Cn1nc(S(N)(=O)=O)sc1=N` [Compound 14] the figure was 97.1 ± 5.32 nM.
Still for that read-out and setting: with `NS(=O)(=O)c1ccc(O)cc1` [Compound 15] the figure was 209 ± 9.19 nM.
`NS(=O)(=O)c1ccc(CO)cc1` [Compound 16] gave a Ki on PaCAγ1 [1] of 533 ± 25.8 nM.
Still for that read-out and setting: with `NS(=O)(=O)c1ccc(CCO)cc1` [Compound 17] the figure was 419 ± 17.7 nM; with `NS(=O)(=O)c1ccc(C(=O)O)cc1` [Compound 18], 793 ± 46.2 nM; with `Nc1nccc(Nc2ccc(S(N)(=O)=O)cc2)n1` [Compound 19], 1320 nM.
At PaCAγ1 [1], `Nc1ccc(S(=O)(=O)Nc2nnc(S(N)(=O)=O)s2)cc1` [Compound 20] had a Ki of 244 ± 16.2 nM.
Consider `NS(=O)(=O)c1ccc(CCNS(=O)(=O)c2ccc([N+](=O)[O-])cc2CO)cc1` [Compound 21], for which, at PaCAγ1 [1], the affinity corresponds to a Ki of 564 ± 32.9 nM.
`Nc1ccc(S(=O)(=O)Nc2ccc(S(N)(=O)=O)cc2)cc1` [Compound 22] returned a Ki at PaCAγ1 [1] of 386 ± 19.3 nM.
For the molecule `Nc1ccc(S(=O)(=O)NCc2ccc(S(N)(=O)=O)cc2)cc1` [Compound 23], the affinity at PaCAγ1 [1], expressed as Ki, was 828 ± 51.7 nM.
Still for that read-out and setting: with `Nc1ccc(S(=O)(=O)NCCc2ccc(S(N)(=O)=O)cc2)cc1` [Compound 24] the figure was 584 ± 22.2 nM.
The molecule `NS(=O)(=O)c1cc(Cl)c(Cl)c(S(N)(=O)=O)c1` [DCP] had a Ki at PaCAγ1 [1] of 5680 nM.
With `NS(=O)(=O)NCCNc1nonc1/C(=N\c1ccc(F)c(Br)c1)NO` [EPC], the results for the Ki on PaCAγ1 [1], on hCA I (setting [4]) and on hCA II were 5320 nM, 8.26 µM and 917 nM, respectively. Besides, the “SI hCA I/PaCAγ1” value in the data set on PaCAγ1 [2] is reported as 1.6. Moreover, in the data set with PaCAγ1 [2], the “SI hCA II/PaCAγ1” value is recorded as 0.2.
As to `CCOc1ccc2nc(S(N)(=O)=O)sc2c1` [EZA, ethoxzolamide], in the data set with Neisseria gonorrhoeae, the “effect on N. gonorrhoeae” value is reported as “long-lasting bacteriostatic effects”. The “effect on H. pylori growth” value in the data set with Helicobacter pylori is “inhibited bacterial growth”.
Turning to `NC(N)=Nc1nc(CSCC/C(N)=N/S(N)(=O)=O)cs1` [FAM], the Ki on PaCAγ1 [1] came out at 2690 nM; at hCA I (setting [4]) it was 0.922 µM; at hCA II it was 58 nM. In addition, the “SI hCA I/PaCAγ1” value in the data set with PaCAγ1 [2] came to 0.3. Besides, the “SI hCA II/PaCAγ1” value with PaCAγ1 [2] stood at 0.02.
The molecule `NS(=O)(=O)c1cc2c(cc1Cl)NCNS2(=O)=O` [HTC] gave a Ki at PaCAγ1 [1] of 6600 nM. In addition, in the data set on PaCAγ1 [2], the “SI hCA I/PaCAγ1” value was found to be 0.05 and the “SI hCA II/PaCAγ1” value was 0.04.
On PaCAγ1 [1], `NS(=O)(=O)c1ccc(S(=O)(=O)Nc2cccc3c(Cl)c[nH]c23)cc1` [IND] registered a Ki of 453 ± 20.1 nM.
Consider `CC(=O)/N=c1/sc(S(N)(=O)=O)nn1C` [MZA], for which, at PaCAγ1 [1], the Ki was determined as 68.4 ± 2.93 nM.
Same read-out and setting: with `O=C1NS(=O)(=O)c2ccccc21` [SAC] the figure was 13800 nM; with `NS(=O)(=O)c1ccc(N2CCCCS2(=O)=O)cc1` [SLT], 356 ± 23.8 nM; with `CC1(C)O[C@@H]2[C@@H](CO[C@@]3(COS(N)(=O)=O)OC(C)(C)O[C@@H]23)O1` [TPM], over 100000 nM.
On the same count and under the same terms, with `Cc1onc(-c2ccccc2)c1-c1ccc(S(N)(=O)=O)cc1` [VLX] the figure was over 100000 nM; with `NS(=O)(=O)Cc1noc2ccccc12` [ZNS], 4170 nM.

B1: PaCAγ1, γ-class carbonic anhydrase from Pseudomonas aeruginosa PAO1 (PA5540) (enzyme, UniProt Q9HT34 1-186, looked up)
chain: MIRKNPSGDLPVIDESAYVDKTAIICGKVIIQANVFVGPYAVIRADEVDADGGMQPIVIGANSNIQDGVVIHSKSGAAVTIGEHSSIAHRSIVHGPCEVGDRVFIGFNSVLFNCRVGDGCVVRHNAVVDGCDLPAGFYVPSTERIGPRTDLASMPRVSVSASEFSEDVARTNVDLVRGYKSLQNEF
notes: PaCAγ1, γ-class carbonic anhydrase encoded by PA5540 of P. aeruginosa PAO1; synthetic gene in pET21d; The initiator methionine is absent in the purified protein by LC-MS; source: E. coli BL21 (DE3), purified (His Trap HP, SEC Superdex 75); not shown: His6, C-terminal, kept
For the molecule B1, the stoichiometry N (usually a count of units in the complex or per binding partner) in data set [3] was found to be 3.
